In patent US8097431B2 (priority 2004, dated 2012):

Tests used:
LexA-DBD:PR-LBD:VP16 = target: T1, LexA-DBD:PR-LBD:VP16 (Homo sapiens, UniProt P06401); test: yeast progesterone tripartite bioassay; assay type: cell-based; conditions: progesterone receptor tripartite
T1 construct: expressed in transfected cells; host or cells: Saccharomyces cerevisiae W303 diploid yARUP16 transformed with pARUP32 (yARUP49)
T1 sequence (P06401 with tags, fused parts or gaps): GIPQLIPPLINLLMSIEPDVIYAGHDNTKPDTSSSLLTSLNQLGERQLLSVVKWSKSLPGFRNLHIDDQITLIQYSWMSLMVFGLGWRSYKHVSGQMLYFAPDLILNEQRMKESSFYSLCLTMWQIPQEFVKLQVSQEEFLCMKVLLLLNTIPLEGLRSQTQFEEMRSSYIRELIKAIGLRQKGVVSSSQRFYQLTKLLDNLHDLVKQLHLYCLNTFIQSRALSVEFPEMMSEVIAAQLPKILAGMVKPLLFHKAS
Protocol: Yeast were inoculated from a plate into synthetic media lacking leucine, uracil and histidine supplemented with 2% dextrose. After 18 hr incubation at 30° C., cells were washed with synthetic media lacking leucine, uracil and histidine supplemented with glycerol and resuspended in glycerol media to an absorbance at 600 nm of 0.03. Cells were grown for 4 hr then 50 μL of cells were added to each well of a 96-well plate. 50 μl of steroid in phosphate buffered saline 0.5% BSA. Cells were grown at 30° C. in a shaking water bath for 18 hr. To detect β-galactosidase activity, 25 μl of cells and 25 μl of Beta-Glo (Promega, Madison Wis.) were transferred to a luminescent 96-well plate (Fisher, Pittsburgh, Pa.). After 30 min incubation at room temperature, the reaction mixture was read using Lumimark (Bio-Rad, Hercules, Calif.).

[1] = target: T2, progesterone tripartite system (Homo sapiens, UniProt P06401); test: progesterone bioactivity in serum of women on birth control (progesterone tripartite system); assay type: in vivo; conditions: women on fourth generation progestin
T2 construct: expressed in transfected cells; host or cells: Saccharomyces cerevisiae W303 diploid yARUP16 transformed with pARUP32 (yARUP49)
T2 sequence (P06401 with tags, fused parts or gaps): T1 sequence (P06401 with tags, fused parts or gaps)
Protocol: Serum samples were pre-treated by diluting with an equal volume of 0.9 mg/mL K2EDTA, (150 μl of serum was added to 150 μl of 0.9 mg/mL K2 EDTA), vortexed briefly and heated for 5 min at 72 C. Pre-treated serum was added to yeast expressing the androgen or progesterone tripartite, prepared as follows.
Yeast were inoculated from a frozen stock into synthetic media lacking leucine, uracil, and histidine supplemented with 2% dextrose. […] Twenty-five microliters of mid-log yeast were added to each well of a 384-well plate using a, BioMek 2000 (Beckman-Coulter). Serum samples were diluted with an equal volume of 0.9 mg/mL K2EDTA, (150 μL of serum was added to 150 μL of 0.9 mg/mL K2 EDTA), vortexed briefly and heated for 5 min at 72° C. Ten microliters of pre-treated sample was added to the plate. Ten microliters of serially diluted compound in H2O was incubated with 25 μL of yeast (Thermolabsystems). The plate was covered with Aeroseal sealing film (Research Products International, Palatine Ill.), and placed on a plate shaker for 5 min and the plate was incubated for 17-18 hr at 28° C. in a humidified incubator. After overnight incubation, the plate was shaken for 5 min. […] After about 2-hr incubation at room temperature, the β-galactosidase in the reaction mixture was determined using Luminskan luminometer (Thermolabsystems). […]

| SMILES | levels detectable by this method (LexA-DBD:PR-LBD:VP16) | serum progesterone levels of women on birth control [1] |
| --- | --- | --- |
| CC(=O)[C@H]1CC[C@H]2[C@@H]3CCC4=CC(=O)CC[C@]4(C)[C@H]3CC[C@]12C [Progesterone, progesterone] | 1000-100,000 pg/ml | – |
| C[C@]12CCC(=O)C=C1[C@@H]1C[C@@H]1[C@H]1[C@@H]3[C@@H]4C[C@@H]4[C@@]4(CCC(=O)O4)[C@@]3(C)CC[C@@H]12 [drospireone] | – | lower |
